Source: patent US11628186B2, “Method and composition for the reduction of viral replication, duration and spread of the COVID-19 and the flu” (priority 2017, dated 2023)

Tests used:
[1] = tested on: subjects diagnosed with Severe COPD requiring supplemental oxygen; experiment: SaO2 pilot study, single inhalation dose, blinded cross-over; assay type: in vivo, human
Procedure: A total of five (5) subjects diagnosed with Severe COPD (chronic bronchitis or emphysema) and requiring supplemental oxygen at rest were enrolled in this study at the University of Connecticut. Each subject received a single inhalation dose of either 0.5 mM sodium pyruvate, 5.0 mM sodium pyruvate or 0.9% sodium chloride at each Study Visit. The dose was administered in a blinded cross-over manner at 1 week intervals; such that all subjects received each study compound. Safety and therapeutic efficacy were evaluated by the following measurements: spirometry, expired breath NO level, SaO2, vital signs, and follow-up telephone interviews.
The study was conducted in four visits: a Screening Visit and Study Visits 1-3. The effect of the inhalation of a single dose of sodium pyruvate (0.5 mM and 5.0 mM) or placebo (0.9% sodium chloride) was studied in a double-blind protocol. The primary efficacy outcome objective was the SaO2 levels for all subjects. In addition, COPD subjects were evaluated by lung function (FEV1 and PEF) and expired breath NO levels obtained just prior to and then at 60 minutes and at 3 hours in the second study, following the administration of the particular sodium pyruvate dose.

[2] = tested on: patients with sinus & lung diseases including IPF and COPD; experiment: 20 mM sodium pyruvate nasal sprays with individual or combined ions (Table X); assay type: in vivo, human
Description: This patent combined dozens of ingredients, including the use of enzyme, growth factors, sugars, nucleotide and vitamins, amino acids and sodium pyruvate, other nutrients and calcium chloride, magnesium chloride and calcium phosphate other ingredients to stimulate the growth of cartilage and collagen for knees and joints.

[3] = tested on: patients with hypoxemia with and without lung diseases; experiment: Comparison of 5 ml of 5 mM sodium pyruvate saline formulas (Table III); assay type: in vivo, human; details: 5 ml of 5 mM formula
[4] = Rat studies of irritation or toxicity; assay type: in vivo; details: 100× concentrations of the 5 mM sodium pyruvate
Description: Ethane and alcohol are lung irritants.

[5] = tested on: patients with sinus & lung diseases including IPF and COPD; experiment: Salts of pyruvate as 20 mM nasal sprays (Table IX)
Description: They never tested the individual salts for their ability to reduce inflammation or increase lung functions.

[6] = tested on: COPD patients with Allergic Rhinitis; experiment: 20 mM sodium pyruvate nasal sprays over three months (Table VI); assay type: in vivo, human; details: 20 mM nasal spray
[7] = tested on: patients with lung diseases including COPD; experiment: Comparison of inhaled salts of pyruvate, 5 ml of 5 mM solution (Table II)
[8] = tested on: patients with various cancers and chronic Hypoxemia; experiment: Cancer trial pilot study; assay type: in vivo, human; details: in saline, without calcium, phosphate and magnesium
Procedure: In eleven patients with various cancers and chronic Hypoxemia, five with lung cancer, including three with non-small cell lung cancer and six with various other cancers, […], which increased SaO2 levels in these patients to enhance the effect of the chemotherapy or radiation, and increased the synthesis of lung surfactants in lung alveoli cells to protect normal cells and help reduce hypoxia in cancer cells. These patients inhaled the formula one to two hours before they were treated with cancer drugs or radiation, given by current standard methods, and continued to inhale the surfactant enhancer formula twice a day for the eight weeks following the chemo therapy treatment. Because these patients are older, they often lack good nutritional eating habits, which effects their immune system. Thus, the patients were also given a proprietary diet high in a unique blend of antioxidants, and nutrients, that they consumed every day before and after chemo or radiation. Good nutrition is always a plus when patients undergo chemo or radiation as sited in numerous published articles. The diet specifically designed for patients with cancer and hypoxemia included calcium pyruvate, dicalcium phosphate and magnesium in their components. […]

[9] = 20 mM sodium pyruvate nasal spray in saline with the listed ions
[10] = 20 mM (0.22%) nasal spray in 0.9% sodium chloride

Compound: CC(=O)C(=O)[O-].[Na+] [Sodium, sodium pyruvate]
- Adverse Events ([1]; 0.5 mM and 5.0 mM single dose): no Adverse Events
- Nitric oxide levels increased ([1]; 5 mM inhaled solution): 19%
- change in the FEV1 or SaO2 compared to pre inhalation values ([1]; single inhalation of 0.5 mM or 5.0 mM in saline): No significant change
- Increased in FEV-1% [2, 9]: 12.0%
- Irritation [2, 9]: None
- Percentage Increase in SaO2 over baseline [2, 9]: 2%
- Percentage increase of Nitric Oxide over baseline [2, 9]: 20.0%
- Relief of congestion, coughing and lung tightness [2, 9]: 6
- Overall Rating 1-10 ([2]; 1 most negative, 10 best): 7
- Percentage Increase in FEV-1 over baseline ([3]; inhaled): 4.0%
- Percentage Increase in SaO2 over baseline ([3]; inhaled): 0%
- Percentage increase of Nitric Oxide over baseline ([3]; inhaled): 18.0%^
- Relief of Congestion and lung tightness 1-10 ([3]; inhaled): 5
- Relief of coughing percentage decrease in four hours ([3]; inhaled): 15%
- Overall Rating 1-10 ([3]; 1 most negative, 10 best): 7
- irritation or toxicity [4]: not to have any irritation or toxicity
- Increased in FEV-1% [5, 10]: 12.0%
- Irritation [5, 10]: none
- Percentage Increase in SaO2 over baseline [5, 10]: 2%
- Percentage increase of Nitric Oxide over baseline [5, 10]: 19.0%
- Relief of congestion, coughing and lung tightness [5, 10]: 6
- Overall Rating 1-10 ([5]; 20 mM (0.22%) nasal spray, 1 most negative, 10 best): 7
- Overall Rating 1-10 [6]: 7
- Percentage decrease in COPD symptoms [6]: 18.0%
- Percentage decrease in us of RX medications [6]: 20%
- Rating 1-10 Congestion and lung tightness [6]: 5
- Rating 1-10 decrease in shortness of breath [6]: 6.0
- Relief of coughing. Percentage Daily decrease [6]: 15%
- Increased in FEV-1% ([7]; 5 ml of 5 mM solution in saline, inhaled): 2.0%
- Irritation ([7]; 5 ml of 5 mM solution, inhaled): none
- Percentage Increase in SaO2 over baseline ([7]; 5 ml of 5 mM solution, inhaled): 1%
- Percentage increase of Nitric Oxide over baseline ([7]; 5 ml of 5 mM solution, inhaled): 19.0%
- Relief of congestion, coughing and lung tightness ([7]; 5 ml of 5 mM solution, inhaled): 5
- Overall Rating 1-10 ([7]; 5 ml of 5 mM solution, 1 most negative, 10 best): 8
- raises nitric oxide [8]: 19%
